# Measured values reported in patent EP2198878A1, “Polypeptide bombesin antagonists” (University Of Miami, priority 2008, dated 2010).
# Peptide text beside a SMILES is read from it. * marks the point of attachment. Leuψ(CH2N)ThzNH2 = CC(C)C[C@@H](CN1CSC[C@H]1C(N)=O)N*; Hydrocinnamoyl = O=C(CCc1ccccc1)*
# System: Human SK-Hep-1 cancers
# Test: SK-Hep-1 human hepatocellular carcinoma xenograft in nude mice
# Format: in vivo, mouse
# Conditions: at therapeutic doses
# Procedure: Human SK-Hep-1 cancers were transplanted sc. into both flank areas of female nude mice. The treatment started 47 days after transplantation as follows: Group 1: Control; Group 2: Peptide 14, 20 µg/day;. There were 8 animals in each group. The substances were dissolved in 0.1% dimethyl sulfoxide (DMSO) and diluted with 10% propylene glycol in water. Amounts of 0.1 ml of the solutions were injected once daily sc. The controls received vehicle only. Tumors and body weights were measured weekly and tumor volume was calculated. The experiment was terminated on day 135.
structure (smiles),measurement,value
"CC(C)C[C@@H](CN1CSC[C@H]1C(N)=O)NC(=O)[C@H](Cc1c[nH]cn1)NC(=O)CNC(=O)[C@@H](NC(=O)[C@H](C)NC(=O)[C@H](Cc1c[nH]c2ccccc12)NC(=O)[C@H](CCC(N)=O)NC(=O)CCc1ccccc1)C(C)C [Peptide 14, Hca-Gln-Trp-Ala-Val-Gly-His-Leu-ψ-Tac-NH2] (Hydrocinnamoyl-QWAVGH-{Leuψ(CH2N)ThzNH2})",toxic effects,no toxic effects
